We go through 3 molecules from patent US20060128744A1, “Use of 5-HT6 agonist for the treatment and prevention of neurodegenerative disorders” (Wyeth, priority 2004, published 2006).

Structures are written as SMILES.

The target in experiment [1] is T1, human cloned 5-HT6 receptors (Homo sapiens, UniProt P50406).
T1 construct: expressed in transfected cells; host or cells: HeLa cells (membrane preparation)
Description: 5-HT6 binding affinity, [3H]-LSD displacement in membranes of Hela cells. Here is the method:
The affinity of test compounds for the serotonin 5-HT6 receptor is evaluated in the following manner. Cultured Hela cells expressing human cloned 5-HT6 receptors are harvested and centrifuged at low speed (1,000×g) for 10.0 min to remove the culture media. The harvested cells are suspended in half volume of fresh physiological phosphate buffered saline solution and recentrifuged at the same speed. This operation is repeated. The collected cells are then homogenized in ten volumes of 50 mM Tris.HCl (pH 7.4) and 0.5 mM EDTA. The homogenate is centrifuged at 40,000×g for 30.0 min and the precipitate is collected. The obtained pellet is resuspended in 10 volumes of Tris.HCl buffer and recentrifuged at the same speed. The final pellet is suspended in a small volume of Tris.HCl buffer and the tissue protein content is determined in aliquots of 10-25 μl volumes. […] The volume of the suspended cell membranes is adjusted to give a tissue protein concentration of 1.0 mg/ml of suspension. […]
The bound complex caught on the filter disk is allowed to air dry and the radioactivity is measured in a Packard TopCount® equipped with six photomultiplier detectors, after the addition of 40.0 μl Microscint®-20 scintillant to each shallow well.
Binding in the presence of varying concentrations of test compound is expressed as a percentage of specific binding in the absence of test compound. […]

The target of experiment [2] is T2, human 5-HT6 receptor stabily transfected into HELA cells (Homo sapiens, UniProt P50406).
T2 construct: expressed in transfected cells; host or cells: HeLa cells, stably transfected
T2 sequence (P50406 whole entry): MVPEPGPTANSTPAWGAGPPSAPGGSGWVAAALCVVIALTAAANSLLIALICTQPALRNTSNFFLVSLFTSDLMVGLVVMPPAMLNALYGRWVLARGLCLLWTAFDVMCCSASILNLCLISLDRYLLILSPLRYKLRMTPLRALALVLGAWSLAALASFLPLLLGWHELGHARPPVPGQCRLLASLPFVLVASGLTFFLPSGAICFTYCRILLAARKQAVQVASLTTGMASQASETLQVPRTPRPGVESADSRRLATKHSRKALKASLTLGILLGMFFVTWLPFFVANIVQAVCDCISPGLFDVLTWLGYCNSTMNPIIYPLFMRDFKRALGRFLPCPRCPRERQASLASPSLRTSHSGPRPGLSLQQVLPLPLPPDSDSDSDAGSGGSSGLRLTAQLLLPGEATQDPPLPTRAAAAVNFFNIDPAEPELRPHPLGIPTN
Description: 5-HT6 agonist activity using cAMP accumulation. Type of experiment: cell-based. Here is the method:
Upon initiation of the assay, the media from cell maintenance is aspirated and cells are preincubated at 37° C. for 15 mins. in KREBS buffer. Following this primary incubation, the buffer is aspirated and an additional incubation is performed at 37° C. for 5 mins. in KREBS buffer containing 500 uM IBMX (3-isobutyl-1-methylxanthine). […] The assay is terminated by the addition of 0.5M perchloric acid. […] Data are analyzed graphically with GraphPad Prism (GraphPad Software, San Diego, Calif.).
A general note: cAMP levels reflect the balance of adenylyl cyclase and phosphodiesterase activity.

Experiment [3] has as its system neuron cultures from E16 rat embryos. Particulars: 72 h. Here is the method:
In this evaluation neuron cultures are prepared from E16 rat embryos. […] After a 72 h period, neuronal survival is determined by a neurofilament ELISA.
The data are expressed as total neurofilament content.

Experiment [4] deals with cortical neuron cultures from E16 rat embryos. Particulars: 72 h. How it is done:
In this evaluation cortical neuron cultures are prepared from E16 rat embryos. […] Neurite outgrowth is determined after a 72 h period by staining cells with a tubulin antibody (TUJ-1) and measuring neurite length with the Cellomics ArrayScan, using the Enhanced Neurite Outgrowth (ENO) algorithm. The data are expressed as total neurite length.

Experiment [5] has as its system brain derived neurotrophic factor (BDNF) protein in cortical neuron cultures. Description: BDNF protein levels in cultured cortical neurons, sandwich ELISA. The format is cell-based, rat. The settings on record: 72 h in culture. How it is done: In this evaluation cortical neuron cultures are prepared from E16 rat embryos and plated on pre-coated 10 cm Petri dishes. […] Levels of brain derived neurotrophic factor (BDNF) protein were measured after a 72 h period by lysing the cells and using a BDNF sandwich ELISA. More specifically, ELISA plates were coated with an anti-BDNF monoclonal antibody. Nonspecific binding was blocked and 50 μg of sample protein was added. A second anti-BDNF antibody was added and incubated. An anti-IgY antibody conjugated with horseradish peroxidase was added and incubated. A TMB solution was added and the colorimetric reaction was measured in a plate reader (absorbance of 450 nm). BDNF levels are quantified after 72 h in culture.

Experiment [6] relates to cerebellar granule neurons. The experiment is described as follows: Oxygen glucose deprivation (OGD) in cerebellar granule neurons, LDH release. Particulars: 4 h OGD, 24 h recovery. Type of experiment: cell-based, rat. How it is done:
(§1) Cerebella isolated from P7 rat pup brains are cut into 1 mm pieces and transferred to a tube containing 0.3 mg/ml trypsin in HBSS. Following enzymatic digestion, the tissue is mechanically triturated. The supernatant is collected and centrifuged at 1200 rpm for 10 minutes. The resultant pellet is resuspended in complete media (Neurobasal, […], 0.5 mM L-glutamine, 100 U/ml penicillin, 100 μg/ml streptomycin, 10% FBS) and plated at a density of 0.5×10^6 cells/well in 24-well plates. After 24 h, media is exchanged with complete serum-free medial (Neurobasal, […], 0.5 mM L-glutamine, 100 U/ml penicillin, 100 μg/ml streptomycin, B-27 supplement).
This is a well characterized model of ischemia-like neuronal injury involving glutamate-induced excitotoxicity (A. Kaasik, et al, Neuroscience (2001) 102, pp427-432). Cultures are maintained for 14 days in vitro prior to experimentation. […] Following the 4 h OGD, deoxygenated buffer is exchanged with complete media. […] At the end of the 24-h period, cell death is determined by measuring lactate dehydrogenase (LDH) released into the media and is expressed as a percent of cell death. The results are shown in FIG. 3 and are presented as means±SD from 5 experiments. Sham bar represents results obtained with cultures subjected to manipulations and changes of culture media without OGD or drug treatment.
A general note: LDH in the medium is a marker of cell lysis.

Experiment [7] concerns cerebellar granule neurons. Description: Potassium withdrawal-induced apoptosis in cerebellar granule neurons, DNA fragmentation ELISA. Type of experiment: cell-based, rat. Particulars: 5 mM K+, 24 h. Here is the method: as §1
Potassium withdrawal, i.e. replacement of […] in the CGN culture medium is a well established model of neuronal cell death by apoptosis (T. M. Miller and E. M. Johnson, Journal of Neuroscience, (1996) 16(23), pp7487-7495). Cultures are maintained for 7 days prior to experimentation. Complete media containing 25 mM K^+ is exchanged with complete media containing 5 mM K^+. […] After 24 h, apoptotic cell death is determined by measuring DNA fragmentation via ELISA. Apoptotic cell death is expressed as % apoptosis.

T1 sequence (P50406 whole entry): as above

Turning to `COc1ccc(OC)c(S(=O)(=O)c2cn(CCN)c3ncccc23)c1` [Test Compound A, (2-{3-[(2,5-dimethoxyphenyl)sulfonyl]-1H-pyrrolo[2,3-b]pyridin-1-yl}ethyl)amine], the Ki (usually the equilibrium dissociation constant of an inhibitor or competing ligand from its target) in experiment [1] stood at 3.6 nM. Also, the Emax (commonly the maximal effect, on the per cent scale that the assay sets) in experiment [2] turned out to be 95%.
As for `CN(C)CCn1cc(S(=O)(=O)c2cccc(F)c2)c2cccnc21` [Test Compound B, N-(2-{3-[(3-fluorophenyl)sulfonyl]-1H-pyrrolo[2,3-b]pyridin-1-yl}ethyl)-N,N-dimethylamine], in experiment [3], the “neurofilament content compared to vehicle treated controls” value is recorded as “increases the neurofilament content”. In addition, the “total neurite length compared to vehicle treated controls” value in experiment [4] is “increased total neurite length”. In experiment [5], the “BDNF protein levels compared to vehicle treated control” value is “significantly increased BDNF protein levels”.
On to `NCCc1cn(S(=O)(=O)c2c(Cl)nc3sccn23)c2ccccc12` [Test Compound C], for which the “reduction of neuronal death” value in experiment [6] (1 μM) is 50%. Also, the “effect on OGD-induced neuronal cell death” value in experiment [6] (1 h pretreatment) is given as “dose-dependent reduction of neuronal cell death”. Also, in experiment [6] (LDH release), the “lowest concentration providing significant protection against OGD-induced cell death” value turned out to be 10 nM. Besides, the “reduction of apoptotic cell death” value in experiment [7] (0.3 μM) was determined as 50%. In addition, in experiment [7] (3.0 μM), the protection from apoptosis entry is “almost total protection from apoptosis”. Besides, the “effect on amount of fragmented DNA (measure of apoptosis)” value in experiment [7] was “significantly, and dose dependently, attenuated”.
